# Laboratory results from patent EP4759810A1, “PROTAC TARGETING BCL-XL PROTEIN AND USE THEREOF” (BEIJING SUNCELL BIO-MEDICAL CO., LTD., priority 2023, dated 2025).
# Read-outs that look alike come from different tables or passages of the source.
# How the values were obtained:
# [1] = system: Molt-4 cells; assay: Molt-4 cell killing activity test (CCK-8); type: cell-based; details: for activity for killing Molt-4 cells, in words: comparison with C1, the targeting ligand or control molecules; for killing Molt-4 cells at different concentrations (Figure 1), in words: 0.001-3 µM, comparison with control molecules
# Procedure: Molt-4 cells were cultured and amplified in 10 cm dishes by using RPMI-1640 medium supplemented with 10% fetal bovine serum. Actively growing and healthy Molt-4 cells were collected, centrifuged at 1000 rpm for 5 minutes, and after removing the supernatant, the cells were resuspended in fresh RPMI-1640 medium containing 10% fetal bovine serum. Cell counting was then performed. The cell density was adjusted to 120,000 cells per milliliter, and 100 µL of the cell suspension was added to each well of a 96-well transparent cell culture plate. It was noted that the edge wells of the 96-well plate were not used for testing; and 300 µL of PBS alone was added to these wells to reduce medium evaporation.
# The small molecule compounds to be tested for activity were prepared. A series of small molecule concentration gradients (0.001, 0.003, 0.01, 0.03, 0.1, 0.3, 1, and 3 µM) were pre-set, and a series of 2× drug dilutions for the above concentrations were prepared in RPMI-1640 medium containing 10% fetal bovine serum. 100 µL of the above medium containing the gradient concentrations of the drug was added to each well of a 96-well plate pre-seeded with cells, so that the final drug concentration in each well was the pre-set concentration gradient. Three replicate wells were used for each tested drug concentration. The 96-well plate was placed back in a 37°C incubator, and the cell viability was measured after three days.
# The plate was taken out three days after adding the drugs, and 100 µL of pre-prepared CCK-8 working solution was added to each well. The CCK-8 working solution was obtained through diluting a CCK-8 stock solution (C0041, Beyotime) by 10-fold volumn with a serum-free RPMI-1640 medium. The 96-well plates with the added CCK-8 working solution were placed back in the 37°C incubator and incubated for 0.5-2 hours. The plates were then taken out, and the absorbance value (OD value) of each well was measured at a wavelength of 450 nm, and the cell viability in each experimental group was calculated according to the following formula: Relative cell viability (%) = […] × 100%.
# [2] = Metabolic stability assay in liver microsomes (human); type: in vitro ADME; details: human liver microsomes 0.5 mg/mL; 1 µM compound; 37°C
# Procedure: (§1) The metabolic reaction of compounds in liver microsome was performed in a system with a total volume of 400 µL, and the following steps below were sequentially performed for the reaction and detection: 1) 200 µL of phosphate buffer (200 mM), 106 µL of sterile ultrapure water, and 40 µL of magnesium chloride solution (50 mM) were added to each detection tube to prepare a reaction working solution. 2) Two reaction systems with or without adding NADPH were prepared for each compound to be tested. For the reaction system with adding NADPH: 10 µL of liver microsomes (20 mg/mL) and 40 µL of NADPH (10 mM) were added to the above working solution; for the reaction system without adding NADPH: 10 µL of liver microsomes (20 mg/mL) and 40 µL of sterile ultrapure water were added to the above working solution. The final concentration of liver microsomes in both reaction systems was 0.5 mg/mL. 3) 4 µL of the compound to be tested ([…]) was added to each reaction tube, resulting in a final concentration of 1 µM for the compound in the reaction system. The detection tubes were placed at 37°C for reaction. 4) 50 µL samples were taken from each detection tube at 0, 15, 30, 45, and 60 minutes after adding the compound. The reaction was terminated by adding cold acetonitrile containing IS (100 nM alprazolam, 200 nM labetalol, 200 nM caffeine, and 2 µM ketoprofen) in a 4× volume. The samples were centrifuged at 3220 g for 40 minutes, 100 µL of the supernatant was mixed with 100 µL of ultrapure water, and a sample was taken for LC-MS/MS analysis.
# (§2) Calculation of in vitro liver microsomal metabolic half-life and in vitro metabolic intrinsic clearance rate: The LC-MS detection results were analyzed to obtain the percentage of the remaining amount of the tested compound relative to the initial amount at each time point. The natural logarithm of the remaining percentage was linearly fitted against the incubation time.
# [3] = Metabolic stability assay in liver microsomes (mouse); type: in vitro ADME; details: mouse liver microsomes 0.5 mg/mL; 1 µM compound; 37°C
# Procedure: as §1, §2
# [4] = Homo sapiens, 72 h, Molt-4 cells, three days, CCK-8, read-out: EC50 (Molt-4)
# [5] = Homo sapiens, Bcl-xL-positive Molt-4 cells, read-out: cellular activity / killing activity (Molt-4 cells)
SMILES,"EC50 [1, 4] [nM]","activity for killing Molt-4 cells, in words [1]",also measured
O=C1CCC(N2C(=O)c3cccc(NCCOCCOCCOCCOCCNC(=O)c4nc(N5CCc6cccc(C(=O)Nc7nc8ccccc8s7)c6C5)ccc4CCCOc4ccc(C#CCN5CCNCC5)cc4F)c3C2=O)C(=O)N1 (centres unmarked) [AF4],> 1000,lower killing activity or loss the function,–
Cc1c(-c2ccc(N3CCc4cccc(C(=O)Nc5nc6ccccc6s5)c4C3)nc2C(=O)NCCOCCOCCNc2cccc3c2C(=O)N(C2CCC(=O)NC2=O)C3=O)cnn1CC12CC3CC(CC(C3)C1)C2 (centres unmarked) [APF2],< 10,good cellular activity similar to those of the targeting ligand per se,–
Cc1c(-c2ccc(N3CCc4cccc(C(=O)Nc5nc6ccccc6s5)c4C3)nc2C(=O)NCCOCCOCCOCCNc2cccc3c2C(=O)N(C2CCC(=O)NC2=O)C3=O)cnn1CC12CC3CC(CC(C3)C1)C2 (centres unmarked) [APF3],< 10,good cellular activity similar to those of the targeting ligand per se,–
Cc1c(-c2ccc(N3CCc4cccc(C(=O)Nc5nc6ccccc6s5)c4C3)nc2C(=O)NCCOCCOCCOCCOCCNc2cccc3c2C(=O)N(C2CCC(=O)NC2=O)C3=O)cnn1CC12CC3CC(CC(C3)C1)C2 (centres unmarked) [APF4],< 10,good cellular activity similar to those of the targeting ligand per se,–
CN[C@@H](C)C(=O)N[C@H](C(=O)N1CCC[C@H]1c1nc(C(=O)c2cccc(OCCN3CCC(CN4CCN(CC#Cc5ccc(OCCCc6ccc(N7CCc8cccc(C(=O)Nc9nc%10ccccc%10s9)c8C7)nc6C(=O)O)c(F)c5)CC4)CC3)c2)cs1)C1CCCCC1 [APL-1],10 to 100,–,–
Cc1ncsc1-c1ccc([C@H](C)NC(=O)[C@@H]2C[C@@H](O)CN2C(=O)[C@@H](NC(=O)CCN2CCC(CN3CCN(CC#Cc4ccc(OCCCc5ccc(N6CCc7cccc(C(=O)Nc8nc9ccccc9s8)c7C6)nc5C(=O)O)c(F)c4)CC3)CC2)C(C)(C)C)cc1 [APQ3],10 to 100,–,–
O=C1CCN(c2ccc(N3CCN(C(=O)CCN4CCN(CC#Cc5ccc(OCCCc6ccc(N7CCc8cccc(C(=O)Nc9nc%10ccccc%10s9)c8C7)nc6C(=O)O)c(F)c5)CC4)CC3)cc2)C(=O)N1 [APQ5a],< 10,–,"EC50 [1, 5]: < 10 nM"
O=C1CCN(c2ccc(N3CCN(C(=O)CCCN4CCN(CC#Cc5ccc(OCCCc6ccc(N7CCc8cccc(C(=O)Nc9nc%10ccccc%10s9)c8C7)nc6C(=O)O)c(F)c5)CC4)CC3)cc2)C(=O)N1 [APQ5b],10 to 100,–,–
O=C1CCN(c2ccc(N3CC(CN4CCN(CC#Cc5ccc(OCCCc6ccc(N7CCc8cccc(C(=O)Nc9nc%10ccccc%10s9)c8C7)nc6C(=O)O)c(F)c5)CC4)C3)cc2)C(=O)N1 [APQ6b],10 to 100,–,–
O=C1CCN(c2ccc(N3CCN(C4CCN(CC#Cc5ccc(OCCCc6ccc(N7CCc8cccc(C(=O)Nc9nc%10ccccc%10s9)c8C7)nc6C(=O)O)c(F)c5)CC4)CC3)cc2)C(=O)N1 [APQ7a],< 10,–,"killing Molt-4 cells at different concentrations (Figure 1), in words [1]: comparable to A-1331852; EC50 [1, 5]: < 10 nM"
O=C1CCN(c2ccc(N3CCN(CC4CCN(CC#Cc5ccc(OCCCc6ccc(N7CCc8cccc(C(=O)Nc9nc%10ccccc%10s9)c8C7)nc6C(=O)O)c(F)c5)CC4)CC3)cc2)C(=O)N1 [APQ7b],10 to 100,–,–
O=C1CCN(c2ccc(OCCN3CCC(CN4CCN(CC#Cc5ccc(OCCCc6ccc(N7CCc8cccc(C(=O)Nc9nc%10ccccc%10s9)c8C7)nc6C(=O)O)c(F)c5)CC4)CC3)cc2)C(=O)N1 [APQ8],10 to 100,–,–
COC(=O)c1nc(N2CCc3cccc(C(=O)Nc4nc5ccccc5s4)c3C2)ccc1CCCOc1ccc(C#CCN2CCN(c3ccc(N4CCC(=O)NC4=O)cc3)CC2)cc1F [APQ9-1],> 1000,lower killing activity or loss the function,–
CC(C)(C)OC(=O)c1nc(N2CCc3cccc(C(=O)Nc4nc5ccccc5s4)c3C2)ccc1CCCOc1ccc(C#CCN2CCN(CC3CCN(c4ccc(N5CCC(=O)NC5=O)cc4)CC3)CC2)cc1F [APQ10-1],> 1000,lower killing activity or loss the function,–
O=C1CCC(n2nnc3ccc(NCCN4CCC(CN5CCN(CC#Cc6ccc(OCCCc7ccc(N8CCc9cccc(C(=O)Nc%10nc%11ccccc%11s%10)c9C8)nc7C(=O)O)c(F)c6)CC5)CC4)cc3c2=O)C(=O)N1 (centres unmarked) [APQ11],< 10,–,"killing Molt-4 cells at different concentrations (Figure 1), in words [1]: comparable to A-1331852; EC50 [1, 5]: < 10 nM"
COc1cc(N2CCN(CC#Cc3ccc(OCCCc4ccc(N5CCc6cccc(C(=O)Nc7nc8ccccc8s7)c6C5)nc4C(=O)O)c(F)c3)CC2)ccc1N1CCC(=O)NC1=O [APQ902a],< 10,–,"EC50 [1, 5]: < 10 nM"
Cc1c(-c2ccc(N3CCc4cccc(C(=O)Nc5nc6ccccc6s5)c4C3)nc2C(=O)NCCn2cc(COCCNc3cccc4c3C(=O)N(C3CCC(=O)NC3=O)C4=O)nn2)cnn1CC12CC3CC(CC(C3)C1)C2 (centres unmarked) [APR1],< 10,good cellular activity similar to those of the targeting ligand per se,–
Cc1c(-c2ccc(N3CCc4cccc(C(=O)Nc5nc6ccccc6s5)c4C3)nc2C(=O)NCCn2cc(COCCOCCNc3cccc4c3C(=O)N(C3CCC(=O)NC3=O)C4=O)nn2)cnn1CC12CC3CC(CC(C3)C1)C2 (centres unmarked) [APR2],< 10,good cellular activity similar to those of the targeting ligand per se,–
Cc1c(-c2ccc(N3CCc4cccc(C(=O)Nc5nc6ccccc6s5)c4C3)nc2C(=O)NCCn2cc(COCCOCCOCCNc3cccc4c3C(=O)N(C3CCC(=O)NC3=O)C4=O)nn2)cnn1CC12CC3CC(CC(C3)C1)C2 (centres unmarked) [APR3],< 10,good cellular activity similar to those of the targeting ligand per se,–
Cc1c(-c2ccc(N3CCc4cccc(C(=O)Nc5nc6ccccc6s5)c4C3)nc2C(=O)NCCn2cc(COCCOCCOCCOCCNc3cccc4c3C(=O)N(C3CCC(=O)NC3=O)C4=O)nn2)cnn1CC12CC3CC(CC(C3)C1)C2 (centres unmarked) [APR4],< 10,good cellular activity similar to those of the targeting ligand per se,–
[2H]C1([2H])Cc2cccc(C(=O)Nc3nc4ccccc4s3)c2CN1c1ccc(-c2cnn(CC34CC5CC(CC(C5)C3)C4)c2C)c(C(=O)NCCOCCOCCOCCNc2cccc3c2C(=O)N(C2CCC(=O)NC2=O)C3=O)n1 (centres unmarked) [Compound A13D6-PF3],< 10,good cellular activity similar to those of the targeting ligand per se,–
[2H]c1c([2H])c([2H])c2sc(NC(=O)c3cccc4c3CN(c3ccc(-c5cnn(CC67CC8CC(CC(C8)C6)C7)c5C)c(C(=O)O)n3)CC4)nc2c1[2H] [Compound A13D-1],–,–,Clint [2]: 235.82 µL/min/mg protein; T1/2 [2]: 5.88 min; Clint [3]: 266.89 µL/min/mg protein; T1/2 [3]: 5.19 min
[2H]C1([2H])c2c(C(=O)Nc3nc4ccccc4s3)cccc2C([2H])([2H])C([2H])([2H])N1c1ccc(-c2cnn(CC34CC5CC(CC(C5)C3)C4)c2C)c(C(=O)O)n1 [Compound A13D-2],–,–,Clint [2]: 55.31 µL/min/mg protein; T1/2 [2]: 25.06 min; Clint [3]: 18.15 µL/min/mg protein; T1/2 [3]: 76.36 min
"CN(C)CC#Cc1ccc(OCCCc2sc(N3CCc4cccc(C(=O)Nc5nc6ccccc6s5)c4C3)nc2C(=O)O)c(F)c1 [Compound A-1155463, reference compound]",–,–,"EC50 ([1]; Molt-4 cells, three days, CCK-8, read-out: EC50 (Molt-4)): < 10 nM"
